US20260166128A1, “HUMAN AMYLIN ANALOG, AND DERIVATIVE THEREOF AND USE THEREOF” (priority 2022, published 2026)
Numbered stars: 1 amine (or outer) side, 2 acyl side, 3 side chain; on linkers, the order of the positions; unused ones are H or OH. Bridge positions count the residues as written; N and C are the ends. Square brackets hold non-standard residues; d marks the D form. Side chains are listed from the residue outwards. Peptide text beside a SMILES is read from it. * marks the point of attachment. C20 diacid = O=C(O)CCCCCCCCCCCCCCCCCCC(=O)*; C18 diacid = O=C(O)CCCCCCCCCCCCCCCCC(=O)*; γGlu = O=C(O)[C@H](CCC(=O)[*:2])N[*:1]; Hyp = O=C(O)[C@@H]1C[C@@H](O)CN1; AEEA = NCCOCCOCC(=O)O

Key:
[1] = biological target: T1, human amylin receptor (Homo sapiens, UniProt O60896+P30988); test: Luciferase assay of amylin derivatives in amylin receptor/CRE-luc CHO cell line; assay type: cell-based; conditions: CHO-K1/Ga15/AMY3 CRE-luc cells, 24 hours incubation, F12 medium containing 10% FBS; read-out: EC50
T1 construct: host or cells: CHO-K1/Ga15/AMY3 cells, further stably transfected with a CRE-luciferase plasmid
T1 sequence (P30988 25-474): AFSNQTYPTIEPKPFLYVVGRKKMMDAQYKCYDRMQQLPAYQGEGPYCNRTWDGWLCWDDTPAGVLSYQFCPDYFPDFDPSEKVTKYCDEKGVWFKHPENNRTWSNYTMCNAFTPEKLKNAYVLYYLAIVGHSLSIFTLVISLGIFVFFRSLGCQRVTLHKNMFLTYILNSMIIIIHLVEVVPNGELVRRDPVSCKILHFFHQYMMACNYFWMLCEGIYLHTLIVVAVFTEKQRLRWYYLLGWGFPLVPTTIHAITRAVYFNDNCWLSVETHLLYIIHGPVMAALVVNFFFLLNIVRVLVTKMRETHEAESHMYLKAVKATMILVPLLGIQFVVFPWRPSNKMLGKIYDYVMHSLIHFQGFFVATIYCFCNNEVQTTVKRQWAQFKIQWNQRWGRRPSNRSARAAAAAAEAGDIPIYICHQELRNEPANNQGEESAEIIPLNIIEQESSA
T1 sequence (O60896 24-148 partner): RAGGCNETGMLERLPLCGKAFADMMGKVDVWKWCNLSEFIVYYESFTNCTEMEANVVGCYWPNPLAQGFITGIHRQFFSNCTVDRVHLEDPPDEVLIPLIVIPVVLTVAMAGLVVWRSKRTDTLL
Experimental: The experiment was intended to detect the activity or efficacy of the amylin derivatives on a human amylin receptor in vitro by luciferase assay.
50 μL of growth medium (F12 medium containing 10% FBS) was added into each well of a white 96-well plate, and the stably transfected amylin/CRE-lue CHO cells were inoculated into the white 96-well plate at a density of about 20,000 cells/well for activity determination.

[2] = Freeze-thaw stability of derivatives (freeze-thaw yield by liquid chromatography); assay type: physicochemical; conditions: for Dissolution property: appearance after dissolution at 0.2 mg/ml in 20 mM phosphate buffer solution (PB) (pH 7.0); for Freeze storage property: appearance after overnight storage at −20° C. and thawing to room temperature, 0.2 mg/ml in 20 mM PB (pH 7.0); for Freeze storage yield: concentration of polypeptide after freezing and thawing / concentration before, by liquid chromatography, −20° C. overnight
Outline: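 Freeze-thaw yield is the ratio of peptide concentration after versus before one overnight −20° C freeze and room-temperature thaw, both quantified by RP-HPLC of supernatant after centrifugation. Samples were 0.2 mg/ml freeze-dried derivative in 20 mM PB, pH 7.0.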

| Structure (SMILES) | EC50 [1] [nM] | Dissolution property [2] | Freeze storage property [2] | Freeze storage yield [2] [%] |
| --- | --- | --- | --- | --- |
| CC[C@H](C)[C@H](NC(=O)[C@@H]1CCCN1C(=O)[C@H](CCCCNC(=O)CC[C@H](NC(=O)CCCCCCCCCCCCCCCCCCC(=O)O)C(=O)O)NC(=O)[C@H](CC(C)C)NC(=O)[C@H](CC(N)=O)NC(=O)[C@H](CC(N)=O)NC(=O)[C@H](CO)NC(=O)[C@H](CO)NC(=O)[C@H](Cc1c[nH]cn1)NC(=O)[C@H](CCCNC(=N)N)NC(=O)[C@H](CC(C)C)NC(=O)[C@H](Cc1ccccc1)NC(=O)[C@H](CCC(=O)O)NC(=O)[C@H](C)NC(=O)[C@H](CC(C)C)NC(=O)[C@H](CCCNC(=N)N)NC(=O)[C@H](CCC(N)=O)NC(=O)[C@@H](NC(=O)[C@H](C)NC(=O)[C@@H]1CSSC[C@H](NC(=O)[C@@H](N)CCCNC(=N)N)C(=O)N[C@@H](CC(N)=O)C(=O)N[C@@H]([C@@H](C)O)C(=O)N[C@@H](C)C(=O)N[C@@H]([C@@H](C)O)C(=O)N1)[C@@H](C)O)C(=O)N[C@@H](CC(C)C)C(=O)N1CCC[C@H]1C(=O)N1CCC[C@H]1C(=O)N[C@H](C(=O)N[C@@H](CC(N)=O)C(=O)N[C@H](C(=O)NCC(=O)N[C@@H](CO)C(=O)N[C@@H](CC(N)=O)C(=O)N[C@H](C(=O)N[C@@H](Cc1ccc(O)cc1)C(N)=O)[C@@H](C)O)C(C)C)[C@@H](C)O [PD017] (H-RCNTATCATQRLAEFLRHSSNNLK([γGlu-C20 diacid])PILPPTNVGSNTY-NH2; disulfide 2-7 (inferred); N-terminus assumed) | 0.772 | Clear | Muddy | 100.81 |
| CC[C@H](C)[C@H](NC(=O)[C@@H]1CCCN1C(=O)[C@H](CCCCNC(=O)CC[C@H](NC(=O)CCCCCCCCCCCCCCCCCCC(=O)O)C(=O)O)NC(=O)[C@H](CC(C)C)NC(=O)[C@H](CC(N)=O)NC(=O)[C@H](CC(N)=O)NC(=O)[C@H](CO)NC(=O)[C@H](CO)NC(=O)[C@H](Cc1c[nH]cn1)NC(=O)[C@H](CCCNC(=N)N)NC(=O)[C@H](CC(C)C)NC(=O)[C@H](Cc1ccccc1)NC(=O)[C@H](CC(=O)O)NC(=O)[C@H](C)NC(=O)[C@H](CC(C)C)NC(=O)[C@H](CCCNC(=N)N)NC(=O)[C@H](CCC(N)=O)NC(=O)[C@@H](NC(=O)[C@H](C)NC(=O)[C@@H]1CSSC[C@H](NC(=O)[C@@H](N)CCCNC(=N)N)C(=O)N[C@@H](CC(N)=O)C(=O)N[C@@H]([C@@H](C)O)C(=O)N[C@@H](C)C(=O)N[C@@H]([C@@H](C)O)C(=O)N1)[C@@H](C)O)C(=O)N[C@@H](CC(C)C)C(=O)N1CCC[C@H]1C(=O)N1CCC[C@H]1C(=O)N[C@H](C(=O)N[C@@H](CC(N)=O)C(=O)N[C@H](C(=O)NCC(=O)N[C@@H](CO)C(=O)N[C@@H](CC(N)=O)C(=O)N[C@H](C(=O)N1C[C@H](O)C[C@H]1C(N)=O)[C@@H](C)O)C(C)C)[C@@H](C)O [PD052] (H-RCNTATCATQRLADFLRHSSNNLK([γGlu-C20 diacid])PILPPTNVGSNT[Hyp]-NH2; disulfide 2-7 (inferred); N-terminus assumed) | 0.03 | Clear | Clear | 96.53 |
| CC[C@H](C)[C@H](NC(=O)[C@@H]1CCCN1C(=O)CNC(=O)[C@H](CC(C)C)NC(=O)[C@H](CCCCNC(=O)CC[C@H](NC(=O)CCCCCCCCCCCCCCCCCCC(=O)O)C(=O)O)NC(=O)[C@H](CC(N)=O)NC(=O)[C@H](CO)NC(=O)[C@H](CO)NC(=O)[C@H](Cc1c[nH]cn1)NC(=O)[C@H](CCCNC(=N)N)NC(=O)[C@H](CC(C)C)NC(=O)[C@H](Cc1ccccc1)NC(=O)[C@H](CCC(=O)O)NC(=O)[C@H](C)NC(=O)[C@H](CC(C)C)NC(=O)[C@H](CCCNC(=N)N)NC(=O)[C@H](CCC(N)=O)NC(=O)[C@@H](NC(=O)[C@H](C)NC(=O)[C@@H]1CSSC[C@H](NC(=O)[C@@H](N)CCCNC(=N)N)C(=O)N[C@@H](CC(N)=O)C(=O)N[C@@H]([C@@H](C)O)C(=O)N[C@@H](C)C(=O)N[C@@H]([C@@H](C)O)C(=O)N1)[C@@H](C)O)C(=O)N[C@@H](CC(C)C)C(=O)N1CCC[C@H]1C(=O)N1CCC[C@H]1C(=O)N[C@H](C(=O)N[C@@H](CC(N)=O)C(=O)N[C@H](C(=O)NCC(=O)N[C@@H](CO)C(=O)N[C@@H](CC(N)=O)C(=O)N[C@H](C(=O)N1CCC[C@H]1C(N)=O)[C@@H](C)O)C(C)C)[C@@H](C)O [PD007] (H-RCNTATCATQRLAEFLRHSSNK([γGlu-C20 diacid])LGPILPPTNVGSNTP-NH2; disulfide 2-7 (inferred); N-terminus assumed) | 0.205 | Clear | Clear | – |

Results, then the compound that gave them:

| EC50 [1] [nM] | Dissolution property [2] | Freeze storage property [2] | Freeze storage yield [2] [%] | Structure (SMILES) |
| --- | --- | --- | --- | --- |
| 0.014 | Clear | Clear | 93.49 | CC[C@H](C)[C@H](NC(=O)[C@@H]1CCCN1C(=O)CNC(=O)[C@H](CC(C)C)NC(=O)[C@H](CC(N)=O)NC(=O)[C@H](CC(N)=O)NC(=O)[C@H](CCCCNC(=O)COCCOCCNC(=O)CC[C@H](NC(=O)CCCCCCCCCCCCCCCCC(=O)O)C(=O)O)NC(=O)[C@H](CO)NC(=O)[C@H](Cc1c[nH]cn1)NC(=O)[C@H](CCCNC(=N)N)NC(=O)[C@H](CC(C)C)NC(=O)[C@H](Cc1ccccc1)NC(=O)[C@H](CC(=O)O)NC(=O)[C@H](C)NC(=O)[C@H](CC(C)C)NC(=O)[C@H](CCCNC(=N)N)NC(=O)[C@H](CCC(N)=O)NC(=O)[C@@H](NC(=O)[C@H](C)NC(=O)[C@@H]1CSSC[C@H](NC(=O)[C@@H](N)CCCNC(=N)N)C(=O)N[C@@H](CC(N)=O)C(=O)N[C@@H]([C@@H](C)O)C(=O)N[C@@H](C)C(=O)N[C@@H]([C@@H](C)O)C(=O)N1)[C@@H](C)O)C(=O)N[C@@H](CC(C)C)C(=O)N1CCC[C@H]1C(=O)N1CCC[C@H]1C(=O)N[C@H](C(=O)N[C@@H](CC(N)=O)C(=O)N[C@H](C(=O)NCC(=O)N[C@@H](CO)C(=O)N[C@@H](CC(N)=O)C(=O)N[C@H](C(=O)N1C[C@H](O)C[C@H]1C(N)=O)[C@@H](C)O)C(C)C)[C@@H](C)O [PD117] (H-RCNTATCATQRLADFLRHSK([AEEA-γGlu-C18 diacid])NNLGPILPPTNVGSNT[Hyp]-NH2; disulfide 2-7 (inferred); N-terminus assumed) |
| 0.034 | Clear | Clear | 98.84 | CC[C@H](C)[C@H](NC(=O)[C@@H]1CCCN1C(=O)CNC(=O)[C@H](Cc1ccccc1)NC(=O)[C@H](CC(N)=O)NC(=O)[C@H](CC(N)=O)NC(=O)[C@H](CO)NC(=O)[C@H](CO)NC(=O)[C@H](Cc1c[nH]cn1)NC(=O)[C@H](CCCNC(=N)N)NC(=O)[C@H](CC(C)C)NC(=O)[C@H](Cc1ccccc1)NC(=O)[C@H](CC(=O)O)NC(=O)[C@H](C)NC(=O)[C@H](CC(C)C)NC(=O)[C@H](CCCNC(=N)N)NC(=O)[C@H](CCC(N)=O)NC(=O)[C@@H](NC(=O)[C@H](C)NC(=O)[C@@H]1CSSC[C@H](NC(=O)[C@H](CCCCN)NC(=O)CC[C@H](NC(=O)CCCCCCCCCCCCCCCCCCC(=O)O)C(=O)O)C(=O)N[C@@H](CC(N)=O)C(=O)N[C@@H]([C@@H](C)O)C(=O)N[C@@H](C)C(=O)N[C@@H]([C@@H](C)O)C(=O)N1)[C@@H](C)O)C(=O)N[C@@H](CC(C)C)C(=O)N1CCC[C@H]1C(=O)N1CCC[C@H]1C(=O)N[C@H](C(=O)N[C@@H](CC(N)=O)C(=O)N[C@H](C(=O)NCC(=O)N[C@@H](CO)C(=O)N[C@@H](CC(N)=O)C(=O)N[C@H](C(=O)N1C[C@H](O)C[C@H]1C(N)=O)[C@@H](C)O)C(C)C)[C@@H](C)O [PD067] ({C20 diacid-γGlu}-KCNTATCATQRLADFLRHSSNNFGPILPPTNVGSNT[Hyp]-NH2; disulfide 2-7 (inferred)) |
| 0.034 | Clear | Clear | 102.94 | CC[C@H](C)[C@H](NC(=O)[C@@H]1CCCN1C(=O)CNC(=O)[C@H](CC(C)C)NC(=O)[C@H](CC(N)=O)NC(=O)[C@H](CC(N)=O)NC(=O)[C@H](CCCCNC(=O)CC[C@H](NC(=O)CCCCCCCCCCCCCCCCCCC(=O)O)C(=O)O)NC(=O)[C@H](CO)NC(=O)[C@H](Cc1c[nH]cn1)NC(=O)[C@H](CCCNC(=N)N)NC(=O)[C@H](CC(C)C)NC(=O)[C@H](Cc1ccccc1)NC(=O)[C@H](CC(=O)O)NC(=O)[C@H](C)NC(=O)[C@H](CC(C)C)NC(=O)[C@H](CCCNC(=N)N)NC(=O)[C@H](CCC(N)=O)NC(=O)[C@@H](NC(=O)[C@H](C)NC(=O)[C@@H]1CSSC[C@H](NC(=O)[C@@H](N)CCCNC(=N)N)C(=O)N[C@@H](CC(N)=O)C(=O)N[C@@H]([C@@H](C)O)C(=O)N[C@@H](C)C(=O)N[C@@H]([C@@H](C)O)C(=O)N1)[C@@H](C)O)C(=O)N[C@@H](CC(C)C)C(=O)N1CCC[C@H]1C(=O)N1CCC[C@H]1C(=O)N[C@H](C(=O)N[C@@H](CC(N)=O)C(=O)N[C@H](C(=O)NCC(=O)N[C@@H](CO)C(=O)N[C@@H](CC(N)=O)C(=O)N[C@H](C(=O)N1C[C@H](O)C[C@H]1C(N)=O)[C@@H](C)O)C(C)C)[C@@H](C)O [PD094] (H-RCNTATCATQRLADFLRHSK([γGlu-C20 diacid])NNLGPILPPTNVGSNT[Hyp]-NH2; disulfide 2-7 (inferred); N-terminus assumed) |
